# Measurements as given in patent publication US9683019B2, “Cyclic polypeptides for the treatment of heart failure” (priority 2013, dated 2017).
# Where a SMILES comes first, the peptide text is derived from it. Bridges are numbered along the chain shown (N, C = ends). [ ]: non-standard residue; d: D form. The star is where a group is joined. 2Nal = N[C@@H](Cc1ccc2ccccc2c1)C(=O)O; N(Me)CH2CH2Ph = CN(CCc1ccccc1)*; pGlu = O=C1CC[C@@H](C(=O)O)N1; NHPhenethyl = c1ccc(CCN*)cc1; d(hCys) = N[C@H](CCS)C(=O)O; dNle = CCCC[C@@H](N)C(=O)O; hCys = N[C@@H](CCS)C(=O)O; Nle = CCCC[C@H](N)C(=O)O
# Assay: Surrogate Activity-Based Plasma Stability Assay
# Format: in vitro ADME
# Details: rat
# Text: Surrogate Activity-Based Plasma Stability Assay:
# 2) Calculate slope of value above and […]
row,Compound,half-life [min]
1,"CCCC[C@H](NC(=O)[C@@H]1CCCN1C(=O)CNC(=O)[C@H](CCCCN)NC(=O)[C@@H]1CSSC[C@H](NC(C)=O)C(=O)N[C@@H](CCCNC(=N)N)C(=O)N2CCC[C@H]2C(=O)N[C@@H](CCCNC(=N)N)C(=O)N[C@@H](CC(C)C)C(=O)N[C@@H](CO)C(=O)N1)C(=O)N1CCC[C@H]1C(=O)N[C@@H](Cc1ccccc1)C(=O)O [Example 1, Ac-C*-R-P-R-L-S-C*-K-G-P-Nle-P-F-OH] (Ac-CRPRLSCKGP[Nle]PF-OH; disulfide 1-7)",8
2,"CCCC[C@H](NC(=O)[C@@H]1CCCN1C(=O)CNC(=O)[C@H](CCCCN)NC(=O)[C@@H]1CSSC[C@H](NC(C)=O)C(=O)N[C@@H](CCCNC(=N)N)C(=O)N2CCC[C@H]2C(=O)N[C@@H](CCCNC(=N)N)C(=O)N[C@@H](CC(C)C)C(=O)N[C@@H](CO)C(=O)N1)C(=O)N1CCC[C@H]1C(=O)NCCc1ccccc1 [Example 2, Ac-C*-R-P-R-L-S-C*-K-G-P-Nle-P-NH(Phenethyl)] (Ac-CRPRLSCKGP[Nle]P-NHPhenethyl; disulfide 1-7)",39
3,"CCCC[C@H](NC(=O)[C@@H]1CCCN1C(=O)CNC(=O)[C@H](CCCCN)NC(=O)[C@@H]1CSSC[C@H](NC(C)=O)C(=O)N[C@@H](CCCNC(=N)N)C(=O)N2CCC[C@H]2C(=O)N[C@@H](CCCNC(=N)N)C(=O)N[C@@H](CC(C)C)C(=O)N[C@@H](CO)C(=O)N1)C(=O)N1CCC[C@H]1C(N)=O [Example 4, Ac-C*-R-P-R-L-S-C*-K-G-P-Nle-P-NH2] (Ac-CRPRLSCKGP[Nle]P-NH2; disulfide 1-7)",506
4,"CCCC[C@H](NC(=O)[C@@H]1CCCN1C(=O)CNC(=O)[C@H](CCCCN)NC(=O)[C@@H]1CSSC[C@H](NC(C)=O)C(=O)N[C@@H](CCCNC(=N)N)C(=O)N2CCC[C@H]2C(=O)N[C@@H](CCCNC(=N)N)C(=O)N[C@@H](CC(C)C)C(=O)N[C@@H](CO)C(=O)N1)C(=O)N1CCC[C@H]1C(=O)N[C@@H](Cc1ccc2ccccc2c1)C(=O)O [Example 5, Ac-C*-R-P-R-L-S-C*-K-G-P-Nle-P-Nal-OH] (Ac-CRPRLSCKGP[Nle]P[2Nal]-OH; disulfide 1-7)",5
5,"CCCC[C@H](NC(=O)[C@@H]1CCCN1C(=O)CNC(=O)[C@H](CCCCN)NC(=O)[C@@H]1CCSSCC[C@H](NC(C)=O)C(=O)N[C@@H](CCCNC(=N)N)C(=O)N2CCC[C@H]2C(=O)N[C@@H](CCCNC(=N)N)C(=O)N[C@@H](CC(C)C)C(=O)N[C@@H](CO)C(=O)N1)C(=O)N1CCC[C@H]1C(=O)N[C@@H](Cc1ccccc1)C(=O)O [Example 7, Ac-hC*-R-P-R-L-S-hC*-K-G-P-Nle-P-F-OH] (Ac-[hCys]RPRLS[hCys]KGP[Nle]PF-OH; disulfide 1-7)",9
6,"CCCC[C@H](NC(=O)[C@@H]1CCCN1C(=O)CNC(=O)[C@H](CCCCN)NC(=O)[C@@H]1CSSC[C@H](NC(C)=O)C(=O)N[C@@H](CCCNC(=N)N)C(=O)N2CCC[C@H]2C(=O)N[C@@H](CCCNC(=N)N)C(=O)N[C@@H](CC(C)C)C(=O)N[C@@H](CO)C(=O)N1)C(=O)N1CCC[C@H]1C(=O)N[C@H](C)C(=O)O [Example 8, Ac-C*-R-P-R-L-S-C*-K-G-P-Nle-P-a-OH] (Ac-CRPRLSCKGP[Nle]P[dA]-OH; disulfide 1-7)",662
7,"CCCC[C@H](NC(=O)[C@@H]1CCCN1C(=O)CNC(=O)[C@H](CCCCN)NC(=O)[C@@H]1CSSC[C@H](NC(C)=O)C(=O)N[C@@H](CCCNC(=N)N)C(=O)N2CCC[C@H]2C(=O)N[C@@H](CCCNC(=N)N)C(=O)N[C@@H](CC(C)C)C(=O)N[C@@H](CO)C(=O)N1)C(=O)N1CCC[C@H]1C(=O)N[C@H](Cc1ccccc1)C(=O)O [Example 10, Ac-C*-R-P-R-L-S-C*-K-G-P-Nle-P-f-OH] (Ac-CRPRLSCKGP[Nle]P[dF]-OH; disulfide 1-7)",57.4
8,"CCCC[C@H](NC(=O)[C@@H]1CCCN1C(=O)CNC(=O)[C@H](CCCCN)NC(=O)[C@@H]1CSSC[C@H](NC(C)=O)C(=O)N[C@@H](CCCNC(=N)N)C(=O)N2CCC[C@H]2C(=O)N[C@@H](CCCNC(=N)N)C(=O)N[C@@H](CC(C)C)C(=O)N[C@@H](CO)C(=O)N1)C(=O)NCCc1ccccc1 [Example 11, Ac-C*-R-P-R-L-S-C*-K-G-P-Nle-NH(Phenethyl)] (Ac-CRPRLSCKGP[Nle]-NHPhenethyl; disulfide 1-7)",32.8
9,"CCCC[C@H](NC(=O)[C@@H]1CCCN1C(=O)CNC(=O)[C@H](CCCCN)NC(=O)[C@@H]1CCSSC[C@@H](NC(C)=O)C(=O)N[C@@H](CCCNC(=N)N)C(=O)N2CCC[C@H]2C(=O)N[C@@H](CCCNC(=N)N)C(=O)N[C@@H](CC(C)C)C(=O)N[C@@H](CO)C(=O)N1)C(=O)N1CCC[C@H]1C(=O)N[C@@H](Cc1ccccc1)C(=O)O [Example 13, Ac-c*-R-P-R-L-S-hC*-K-G-P-Nle-P-F-OH] (Ac-[dC]RPRLS[hCys]KGP[Nle]PF-OH; disulfide 1-7)",10
10,"CCCC[C@H](NC(=O)[C@@H]1CCCN1C(=O)CNC(=O)[C@H](CCCCN)NC(=O)[C@H]1CSSC[C@@H](NC(C)=O)C(=O)N[C@@H](CCCNC(=N)N)C(=O)N2CCC[C@H]2C(=O)N[C@@H](CCCNC(=N)N)C(=O)N[C@@H](CC(C)C)C(=O)N[C@@H](CO)C(=O)N1)C(=O)N1CCC[C@H]1C(=O)N[C@@H](Cc1ccccc1)C(=O)O [Example 14, Ac-c*-R-P-R-L-S-c*-K-G-P-Nle-P-F-OH] (Ac-[dC]RPRLS[dC]KGP[Nle]PF-OH; disulfide 1-7)",7.5
11,"CCCC[C@H](NC(=O)[C@@H]1CCCN1C(=O)CNC(=O)[C@H](CCCCN)NC(=O)[C@@H]1CCSSCC[C@@H](NC(C)=O)C(=O)N[C@@H](CCCNC(=N)N)C(=O)N2CCC[C@H]2C(=O)N[C@@H](CCCNC(=N)N)C(=O)N[C@@H](CC(C)C)C(=O)N[C@@H](CO)C(=O)N1)C(=O)N1CCC[C@H]1C(=O)N[C@@H](Cc1ccccc1)C(=O)O [Example 16, Ac-(D-hC)*-R-P-R-L-S-hC*-K-G-P-Nle-P-F-OH] (Ac-[d(hCys)]RPRLS[hCys]KGP[Nle]PF-OH; disulfide 1-7)",7
12,"CCCC[C@H](NC(=O)[C@@H]1CCCN1C(=O)CNC(=O)[C@H](CCCCN)NC(=O)[C@H]1CCSSCC[C@@H](NC(C)=O)C(=O)N[C@@H](CCCNC(=N)N)C(=O)N2CCC[C@H]2C(=O)N[C@@H](CCCNC(=N)N)C(=O)N[C@@H](CC(C)C)C(=O)N[C@@H](CO)C(=O)N1)C(=O)N1CCC[C@H]1C(=O)N[C@@H](Cc1ccccc1)C(=O)O [Example 17, Ac-(D-hC)*-R-P-R-L-S-(D-hC)*-K-G-P-Nle-P-F-OH] (Ac-[d(hCys)]RPRLS[d(hCys)]KGP[Nle]PF-OH; disulfide 1-7)",11.4
13,"CC(=O)N[C@@H]1CCSSCC[C@@H](C(=O)N[C@@H](CCCCN)C(=O)NCC(=O)N2CCC[C@H]2C(=O)N[C@H](Cc2ccccc2)C(=O)N[C@H](C)C(=O)N[C@H](Cc2ccccc2)C(=O)O)NC(=O)[C@H](CO)NC(=O)[C@H](CC(C)C)NC(=O)[C@H](CCCNC(=N)N)NC(=O)[C@@H]2CCCN2C(=O)[C@H](CCCNC(=N)N)NC1=O [Example 18, Ac-(D-hC)*-R-P-R-L-S-(hC)*-K-G-P-f-a-f-OH] (Ac-[d(hCys)]RPRLS[hCys]KGP[dF][dA][dF]-OH; disulfide 1-7)",50
14,"CCCC[C@@H](NC(=O)[C@@H]1CCCN1C(=O)CNC(=O)[C@H](CCCCN)NC(=O)[C@@H]1CCSSC[C@@H](NC(C)=O)C(=O)N[C@@H](CCCNC(=N)N)C(=O)N2CCC[C@H]2C(=O)N[C@@H](CCCNC(=N)N)C(=O)N[C@@H](CC(C)C)C(=O)N[C@@H](CO)C(=O)N1)C(=O)N[C@H](C)C(=O)N[C@H](Cc1ccccc1)C(=O)O [Example 19, Ac-c-R-P-R-L-S-(hC)-K-G-P-(D-Nle)-a-f-OH] (Ac-[dC]RPRLS[hCys]KGP[dNle][dA][dF]-OH; disulfide 1-7 (inferred))",50
15,"CCCC[C@H](NC(=O)[C@@H]1CCCN1C(=O)CNC(=O)[C@H](CCCCN)NC(=O)[C@@H]1CSSC[C@H](NC(=O)[C@H](CCCNC(=N)N)NC(=O)[C@@H]2CCC(=O)N2)C(=O)N[C@@H](CCCNC(=N)N)C(=O)N[C@@H](CC(C)C)C(=O)N[C@@H](CO)C(=O)N1)C(=O)N1CCC[C@H]1C(=O)N[C@@H](Cc1ccccc1)C(=O)O [Example 20, pE-R-C*-R-L-S-C*-K-G-P-Nle-P-F-OH] ([pGlu]RCRLSCKGP[Nle]PF-OH; disulfide 3-7)",11.9
16,"CCCC[C@@H](NC(=O)[C@@H]1CCCN1C(=O)CNC(=O)[C@H](CCCCN)NC(=O)[C@@H]1CSSC[C@H](NC(=O)[C@H](CCCNC(=N)N)NC(=O)[C@@H]2CCC(=O)N2)C(=O)N[C@@H](CCCNC(=N)N)C(=O)N[C@@H](CC(C)C)C(=O)N[C@@H](CO)C(=O)N1)C(=O)N[C@H](C)C(=O)N[C@H](Cc1ccccc1)C(=O)O [Example 21, pE-R-C*-R-L-S-C*-K-G-P-(D-Nle)-a-f-OH] ([pGlu]RCRLSCKGP[dNle][dA][dF]-OH; disulfide 3-7)",> 1000
17,"CCCC[C@@H](NC(=O)[C@@H]1CCCN1C(=O)CNC(=O)[C@H](Cc1ccccc1)NC(=O)[C@@H]1CSSC[C@H](NC(=O)[C@H](CCCNC(=N)N)NC(=O)[C@@H]2CCC(=O)N2)C(=O)N[C@@H](CCCNC(=N)N)C(=O)N[C@@H](CC(C)C)C(=O)N[C@@H](CO)C(=O)N1)C(=O)N[C@H](C)C(=O)N[C@H](Cc1ccccc1)C(=O)O [Example 22, pE-R-C*-R-L-S-C*-F-G-P-(D-Nle)-a-f-OH] ([pGlu]RCRLSCFGP[dNle][dA][dF]-OH; disulfide 3-7)",> 1000
18,"CCCC[C@@H](NC(=O)[C@@H]1CCCN1C(=O)[C@@H](C)NC(=O)[C@H](CCCCN)NC(=O)[C@@H]1CSSC[C@H](NC(=O)[C@H](CCCNC(=N)N)NC(=O)[C@@H]2CCC(=O)N2)C(=O)N[C@@H](CCCNC(=N)N)C(=O)N[C@@H](CC(C)C)C(=O)N[C@@H](CO)C(=O)N1)C(=O)N[C@H](C)C(=O)N[C@H](Cc1ccccc1)C(=O)O [Example 23, pE-R-C*-R-L-S-C*-K-a-P-(D-Nle)-a-f-OH] ([pGlu]RCRLSCK[dA]P[dNle][dA][dF]-OH; disulfide 3-7)",3160

# Same assay, conditions: rat, read-out: Surrogate activity-based Plasma stability t½
row,Compound,half-life [min]
1,"CCCC[C@H](NC(=O)[C@@H]1CCCN1C(=O)CNC(=O)[C@H](CCCCN)NC(=O)[C@@H]1CSSC[C@H](NC(C)=O)C(=O)N[C@@H](CCCNC(=N)N)C(=O)N2CCC[C@H]2C(=O)N[C@@H](CCCNC(=N)N)C(=O)N[C@@H](CC(C)C)C(=O)N[C@@H](CO)C(=O)N1)C(=O)N1CCC[C@H]1C(=O)N(C)CCc1ccccc1 [Example 9, Ac-C*-R-P-R-L-S-C*-K-G-P-Nle-P-NMe(Phenethyl)] (Ac-CRPRLSCKGP[Nle]P-{N(Me)CH2CH2Ph}; disulfide 1-7)",109
